Residues, ends and D or L forms follow the SMILES beside them.
How the values were obtained:
[1] = Body weight of rats in the 1.5-hour ischemia/reperfusion model; assay type: in vivo, Sprague-Dawley (SD) rats; conditions: 3.6 mg/kg intraperitoneal once a day
Method: (§1) Sprague-Dawley (SD) rats, male, weighing 280-320 g, clean, feeding, conditions: room temperature of 20-25° C., humidity of 30-60%, well ventilated, ad libitum diet; the animals were acclimatized in the feeding environment for three days prior to the experiment.
(§2) The rats were anesthetized with 4% chloral hydrate (350 mg/kg, ip.) and then were fixed in a supine position. A midline ventral neck incision was made, the right common carotid artery was separated and snared with two sutures for further use. Then, the internal carotid artery and external carotid artery were separated, and the external carotid artery was ligatured. The separated common carotid artery was ligatured at its proximal end with a thread, and the blood flow of the same was blocked at its distal end with a bulldog clamp. A small opening was cut therebetween and a nylon suture (4-0) which is heated at one end into a bead-like shape (having a diameter of <0.3 mm) was inserted into the small opening. The bulldog clamp was removed, and the nylon suture was gently advanced to the origin of the anterior cerebral artery (18-20 mm), thereby causing arterial ischemia in brain by blocking the blood supply of the cerebral artery. The skin was sutured and was sterilized with tincture of iodine. […]

[2] = tested on: right cerebral artery ischemia/reperfusion model in rats; experiment: Neurologic deficit score in the rat 1.5-hour ischemia/reperfusion model; assay type: in vivo, Sprague-Dawley (SD) rats; conditions: 3.6 mg/kg intraperitoneal once a day
Method: as §1
as §2, with “opening.” for “opening. The bulldog clamp was removed, and the nylon suture was gently advanced to the origin of the anterior cerebral artery (18-20 mm), thereby causing arterial ischemia in brain by blocking the blood supply of the cerebral artery. The skin was sutured and was sterilized with tincture of iodine.”
Neurologic deficit scores were assessed for the above experimental animals according to the following procedure before the beginning of experiment and 24 hours, 1 day, 3 days, 7 days, 14 days, 28 days, 56 days, and 112 days after the beginning of experiment; Score rules: see Zea Longer score and NSS score, full score of 10; • (i) Lifting an animal by tail: (full score of 1) […]

## CC(C)CC(NC(=O)C(CCC(N)=O)NC(=O)C(NC(=O)C(CO)NC(=O)C(Cc1c[nH]cn1)NC(=O)C(N)C(C)C)C(C)C)C(=O)NC(Cc1ccc(O)cc1)C(=O)O (stereo not shown) [compound of formula (III)] (H-VHSVQLY-OH; configuration not given here)
[1]; I1.5R+1 week+dosing for 4 weeks, FIG. 3
  weight change compared to the model group: gradually increased weight
[1]; I1.5R+2 weeks+dosing for 4 weeks, weight data not demonstrative (groups already differed before dosing), FIG. 5
  weight change compared to the model group: gradually increased weight
[2]; I1.5R+1 week+dosing for 4 weeks, statistically significant in weeks 2, 3, 4, 5 and 7 after the operation, FIG. 4
  neuroethology (neurologic deficit) score compared to the model group: gradually declined neuroethology score
[2]; I1.5R+2 weeks+dosing for 4 weeks, statistically significant at the fifth week after the operation, FIG. 6
  neurological score compared to the model group: declined from the beginning of the administration

Reference: patent US20190040101A1, “COMPOUND FOR TREATING SEQUELAE OF ISCHEMIC CEREBRAL STROKE” (priority 2015, published 2019)
